# Test results taken from ChEMBL document CHEMBL3885881, “DrugMatrix”.
# Species: Rattus norvegicus
# Assay: DrugMatrix - Regimen: Daily Repeat
# Format: toxicity, organism-based, Sprague-Dawley
# Design: regimen Daily Repeat, gender Male, age 6-8 weeks
# Conditions: in vivo, po, route oral GAVAGE, vehicle .5 % CMC; for BASOPHIL / EOSINOPHIL / ERYTHROCYTE COUNT / HEMATOCRIT / HEMOGLOBIN / LEUKOCYTE COUNT / LYMPHOCYTE / MEAN CORPUSCULAR HEMOGLOBIN / MEAN CORPUSCULAR HEMOGLOBIN CONCENTRATION / MEAN CORPUSCULAR VOLUME / MONOCYTE / NEUTROPHIL / PLATELET COUNT: tissue Blood; for ALANINE AMINOTRANSFERASE / ALBUMIN / ALKALINE PHOSPHATASE / ASPARTATE AMINOTRANSFERASE / BLOOD UREA NITROGEN / CHLORIDE / CHOLESTEROL / CREATINE PHOSPHOKINASE / CREATININE / GLUCOSE / PHOSPHORUS / SODIUM / TOTAL PROTEIN: tissue Plasma
# [1] = 0 mg/kg, 72 h, dose level Control, time 3 day
# [2] = 0 mg/kg, 120 h, dose level Control, time 5 day
# [3] = 10 mg/kg, 72 h, dose level Low, time 3 day
# [4] = 10 mg/kg, 120 h, dose level Low, time 5 day
# [5] = 2000 mg/kg, 72 h, dose level High, time 3 day
# [6] = 2000 mg/kg, 120 h, dose level High, time 5 day
compound,measurement,setting,value
CCn1cc(C(=O)O)c(=O)c2cc(F)c(N3CCNC(C)C3)c(F)c21 (stereo unspecified) [LOMEFLOXACIN],BASOPHIL,[1],0%
same,EOSINOPHIL,[1],0.4%
same,ERYTHROCYTE COUNT,[1],6.43 x10E6/uL
same,HEMATOCRIT,[1],37.36%
same,HEMOGLOBIN,[1],13.98 G/DL
same,LEUKOCYTE COUNT,[1],13 x10E3/uL
same,LYMPHOCYTE,[1],81.4%
same,MEAN CORPUSCULAR HEMOGLOBIN,[1],21.9 pg
same,MEAN CORPUSCULAR HEMOGLOBIN CONCENTRATION,[1],37.4 G/DL
same,MEAN CORPUSCULAR VOLUME,[1],58.52 fL
same,MONOCYTE,[1],0.4%
same,NEUTROPHIL,[1],18%
same,PLATELET COUNT,[1],1386 x10E3/uL
same,ALANINE AMINOTRANSFERASE,[1],39.33 u/L
same,ALBUMIN,[1],3.57 G/DL
same,ALKALINE PHOSPHATASE,[1],283.83 u/L
same,ASPARTATE AMINOTRANSFERASE,[1],69.5 u/L
same,BLOOD UREA NITROGEN,[1],14.83 mg/dL
same,CHLORIDE,[1],107.33 MEQ/L
same,CHOLESTEROL,[1],75.17 mg/dL
same,CREATINE PHOSPHOKINASE,[1],107.67 u/L
same,CREATININE,[1],0.48 mg/dL
same,GLUCOSE,[1],172.5 mg/dL
same,PHOSPHORUS,[1],10.48 mg/dL
same,SODIUM,[1],152.33 MEQ/L
same,TOTAL PROTEIN,[1],5.9 G/DL
same,BASOPHIL,[2],0%
same,EOSINOPHIL,[2],0.4%
same,ERYTHROCYTE COUNT,[2],6.96 x10E6/uL
same,HEMATOCRIT,[2],41.12%
same,HEMOGLOBIN,[2],15.24 G/DL
same,LEUKOCYTE COUNT,[2],11.06 x10E3/uL
same,LYMPHOCYTE,[2],88.6%
same,MEAN CORPUSCULAR HEMOGLOBIN,[2],21.96 pg
same,MEAN CORPUSCULAR HEMOGLOBIN CONCENTRATION,[2],37.1 G/DL
same,MEAN CORPUSCULAR VOLUME,[2],59.12 fL
same,MONOCYTE,[2],0.2%
same,NEUTROPHIL,[2],10.8%
same,PLATELET COUNT,[2],1155.8 x10E3/uL
same,ALANINE AMINOTRANSFERASE,[2],36.33 u/L
same,ALBUMIN,[2],3.72 G/DL
same,ALKALINE PHOSPHATASE,[2],340.33 u/L
same,ASPARTATE AMINOTRANSFERASE,[2],68.33 u/L
same,BLOOD UREA NITROGEN,[2],15 mg/dL
same,CHLORIDE,[2],108.17 MEQ/L
same,CHOLESTEROL,[2],74.67 mg/dL
same,CREATINE PHOSPHOKINASE,[2],110.67 u/L
same,CREATININE,[2],0.47 mg/dL
same,GLUCOSE,[2],171.33 mg/dL
same,PHOSPHORUS,[2],10.05 mg/dL
same,SODIUM,[2],155.5 MEQ/L
same,TOTAL PROTEIN,[2],6.33 G/DL
same,BASOPHIL,[3],0%
same,EOSINOPHIL,[3],0.33%
same,ERYTHROCYTE COUNT,[3],6.14 x10E6/uL
same,HEMATOCRIT,[3],37.73%
same,HEMOGLOBIN,[3],14.37 G/DL
same,LEUKOCYTE COUNT,[3],14.47 x10E3/uL
same,LYMPHOCYTE,[3],89.33%
same,MEAN CORPUSCULAR HEMOGLOBIN,[3],23.47 pg
same,MEAN CORPUSCULAR HEMOGLOBIN CONCENTRATION,[3],38.1 G/DL
same,MEAN CORPUSCULAR VOLUME,[3],61.53 fL
same,MONOCYTE,[3],0%
same,NEUTROPHIL,[3],10.33%
same,PLATELET COUNT,[3],1193.33 x10E3/uL
same,ALANINE AMINOTRANSFERASE,[3],39 u/L
same,ALBUMIN,[3],3.37 G/DL
same,ALKALINE PHOSPHATASE,[3],307 u/L
same,ASPARTATE AMINOTRANSFERASE,[3],60.67 u/L
same,BLOOD UREA NITROGEN,[3],11.33 mg/dL
same,CHLORIDE,[3],106.67 MEQ/L
same,CHOLESTEROL,[3],65.33 mg/dL
same,CREATINE PHOSPHOKINASE,[3],106 u/L
same,CREATININE,[3],0.53 mg/dL
same,GLUCOSE,[3],175.33 mg/dL
same,PHOSPHORUS,[3],12.17 mg/dL
same,SODIUM,[3],151.67 MEQ/L
same,TOTAL PROTEIN,[3],5.53 G/DL
same,BASOPHIL,[4],0%
same,EOSINOPHIL,[4],0%
same,ERYTHROCYTE COUNT,[4],6.95 x10E6/uL
same,HEMATOCRIT,[4],41.1%
same,HEMOGLOBIN,[4],15.1 G/DL
same,LEUKOCYTE COUNT,[4],16.87 x10E3/uL
same,LYMPHOCYTE,[4],90.67%
same,MEAN CORPUSCULAR HEMOGLOBIN,[4],21.77 pg
same,MEAN CORPUSCULAR HEMOGLOBIN CONCENTRATION,[4],36.73 G/DL
same,MEAN CORPUSCULAR VOLUME,[4],59.17 fL
same,MONOCYTE,[4],0.33%
same,NEUTROPHIL,[4],9%
same,PLATELET COUNT,[4],1212.33 x10E3/uL
same,ALANINE AMINOTRANSFERASE,[4],46.33 u/L
same,ALBUMIN,[4],3.43 G/DL
same,ALKALINE PHOSPHATASE,[4],276.33 u/L
same,ASPARTATE AMINOTRANSFERASE,[4],68 u/L
same,BLOOD UREA NITROGEN,[4],13.67 mg/dL
same,CHLORIDE,[4],105 MEQ/L
same,CHOLESTEROL,[4],70 mg/dL
same,CREATINE PHOSPHOKINASE,[4],104.33 u/L
same,CREATININE,[4],0.57 mg/dL
same,GLUCOSE,[4],159.33 mg/dL
same,PHOSPHORUS,[4],10.67 mg/dL
same,SODIUM,[4],151.67 MEQ/L
same,TOTAL PROTEIN,[4],5.7 G/DL
same,BASOPHIL,[5],0%
same,EOSINOPHIL,[5],0%
same,ERYTHROCYTE COUNT,[5],6.7 x10E6/uL
same,HEMATOCRIT,[5],41%
same,HEMOGLOBIN,[5],15.63 G/DL
same,LEUKOCYTE COUNT,[5],12.43 x10E3/uL
same,LYMPHOCYTE,[5],83%
same,MEAN CORPUSCULAR HEMOGLOBIN,[5],23.33 pg
same,MEAN CORPUSCULAR HEMOGLOBIN CONCENTRATION,[5],38.17 G/DL
same,MEAN CORPUSCULAR VOLUME,[5],61.2 fL
same,MONOCYTE,[5],0.33%
same,NEUTROPHIL,[5],16.67%
same,PLATELET COUNT,[5],1479.67 x10E3/uL
same,ALANINE AMINOTRANSFERASE,[5],32 u/L
same,ALBUMIN,[5],3.53 G/DL
same,ALKALINE PHOSPHATASE,[5],214.33 u/L
same,ASPARTATE AMINOTRANSFERASE,[5],57.67 u/L
same,BLOOD UREA NITROGEN,[5],19 mg/dL
same,CHLORIDE,[5],103.33 MEQ/L
same,CHOLESTEROL,[5],62.67 mg/dL
same,CREATINE PHOSPHOKINASE,[5],126 u/L
same,CREATININE,[5],0.67 mg/dL
same,GLUCOSE,[5],129.33 mg/dL
same,PHOSPHORUS,[5],11.57 mg/dL
same,SODIUM,[5],149.33 MEQ/L
same,TOTAL PROTEIN,[5],5.93 G/DL
same,BASOPHIL,[6],0%
same,EOSINOPHIL,[6],0%
same,ERYTHROCYTE COUNT,[6],6.87 x10E6/uL
same,HEMATOCRIT,[6],40.23%
same,HEMOGLOBIN,[6],15.07 G/DL
same,LEUKOCYTE COUNT,[6],19.9 x10E3/uL
same,LYMPHOCYTE,[6],96.33%
same,MEAN CORPUSCULAR HEMOGLOBIN,[6],21.93 pg
same,MEAN CORPUSCULAR HEMOGLOBIN CONCENTRATION,[6],37.47 G/DL
same,MEAN CORPUSCULAR VOLUME,[6],58.57 fL
same,MONOCYTE,[6],0%
same,NEUTROPHIL,[6],3.67%
same,PLATELET COUNT,[6],1396 x10E3/uL
same,ALANINE AMINOTRANSFERASE,[6],40.67 u/L
same,ALBUMIN,[6],3.47 G/DL
same,ALKALINE PHOSPHATASE,[6],183 u/L
same,ASPARTATE AMINOTRANSFERASE,[6],56.33 u/L
same,BLOOD UREA NITROGEN,[6],13.33 mg/dL
same,CHLORIDE,[6],106 MEQ/L
same,CHOLESTEROL,[6],63 mg/dL
same,CREATINE PHOSPHOKINASE,[6],125.67 u/L
same,CREATININE,[6],0.5 mg/dL
same,GLUCOSE,[6],154.67 mg/dL
same,PHOSPHORUS,[6],10.7 mg/dL
same,SODIUM,[6],152.33 MEQ/L
same,TOTAL PROTEIN,[6],5.8 G/DL
